Measurements published in patent US20250304587A1, “WEE1 INHIBITOR, PREPARATION THEREFOR AND USE THEREOF” (JIANGSU TASLY DIYI PHARMACEUTICAL CO., LTD., priority 2022, published 2025).
Values after ≈ are worked out from the molar mass of the structure shown. Like-named read-outs stand apart in the source and are kept apart here.

What was measured:
[1] = Metabolic stability in liver microsomes, mouse; type: in vitro ADME
Description: (§1) Test Example 3: Evaluation of the Metabolic Stability of Liver Microsomes (Mouse and Human) In Vitro Microsomes were taken out from the −80° C. refrigerator, rapidly melted in a 37° C. water bath and placed on ice until ready to use. The test article was diluted with DMSO to prepare a 10 mM stock solution, and then diluted with acetonitrile to a 0.5 mM secondary stock solution. […] NADPH was diluted with Buffer C to a working solution of 6 mM for the starter solution. An acetonitrile solution containing an internal standard was prepared as the precipitant, and Verapamil-HCl was chosen as the internal standard at a concentration of 4 ng/ml. […] A separate plate with pointed bottom wells, noted as a precipitation plate, was added with 135 μL precipitant per well; 0 h samples were transferred to the plate after 10 min incubation and 15 μL of starter solution was added; the plate was placed on ice before centrifugation. The diluted starter solution was added in sufficient quantity to the dispensing plate to facilitate the multichannel pipette aspiration operation. The reaction was carried out on a warm incubation shaker and 15 μL of starter solution/sample is added to the plate using a multichannel pipette. The reaction was mixed with a slight shake to initiate the reaction, which was accurately timed and recorded using a timer; After the reaction time had elapsed, all the solution in the plate was aspirated using the multichannel pipette and added to the precipitation plate to terminate the reaction at that point in time. After all reactions had been terminated, the plates were shaken for ten minutes on a plate shaker at 600 rpm to precipitate the protein. The plate was centrifuged at 4° C. for 15 minutes at maximum rpm. 80 μL of supernatant was taken, 320 μL of pure water was added and mixed for LC-MS analysis.

[2] = Metabolic stability in liver microsomes, human; type: in vitro ADME
Description: as §1

[3] = Metabolic stability in liver microsomes, rat; type: in vitro ADME
Description: as §1, with “Microsomes” for “Test Example 3: Evaluation of the Metabolic Stability of Liver Microsomes (Mouse and Human) In Vitro Microsomes”

[4] = Metabolic stability in liver microsomes, dog; type: in vitro ADME
Description: as §1, with “Microsomes” for “Test Example 3: Evaluation of the Metabolic Stability of Liver Microsomes (Mouse and Human) In Vitro Microsomes”

[5] = Metabolic stability in liver microsomes, monkey; type: in vitro ADME
Description: as §1, with “Microsomes” for “Test Example 3: Evaluation of the Metabolic Stability of Liver Microsomes (Mouse and Human) In Vitro Microsomes”

[6] = Saturated solubility in buffer at different pH; type: physicochemical; settings: for solubility at 24 h: buffer solution, aqueous buffer, thermodynamic from solid
Description: The compound was placed in a buffer solution and shaken at constant temperature for 24 h. […] Chromatographic conditions: C18 column, mobile phase A: 0.02 M potassium dihydrogen phosphate:acetonitrile=90:10, mobile phase B: acetonitrile; V: 1.0 ml/min, T: 35° C., λ: 210 nm.

[7] = Pharmacokinetics on single dose in rats (iv and po); type: in vivo, male SD rats
Description: Pharmacokinetic properties of the drug in male SD rats were evaluated by the same method with in vivo pharmacokinetic study with mice.

[8] = Pharmacokinetics on single dose in Beagle dogs (iv and po); type: in vivo, male Beagle dogs
Description: Pharmacokinetic properties of the drug in male Beagle dogs were evaluated by the same method with in vivo pharmacokinetic study with mice. The basic information is as follows: • Beagle: weighing 8-11 kg, purchased from Jiangsu Marshall Biotechnology Co., Ltd. • Dosage: 2 mg/kg (intravenous injection); 10 mg/kg (oral) • Solvent: 5% DMSO+5% Solutol+90% (20% HP-β-CD in Saline)

[9] = test system: human pancreatic cancer BxPC3 cells xenograft; assay: Anti-tumor efficacy, BxPC3 xenograft (CDX model); type: in vivo, female BALB/c nude mice; settings: after 40 days
Description: Experimental method: BALB/c nude mice (provided by Charles River) were selected, 7-8 weeks old and weighing 19-22 g.
The prepared and cultured BxPC3 cells were counted, and 1×10^7 BxPC3 cells were mixed in 0.1 mL PBS solution and inoculated subcutaneously on the right wing of mice. When the cells became tumors and the average tumor volume reached 190 mm^3, they began to be grouped and administered. […] The experimental indicator was to check whether the tumor growth was inhibited. The formula for calculating the tumor volume was: V=0.5a×b^2, where a and b respectively indicated the long and short diameters of the tumor.
The anti-tumor effects of the compounds were evaluated by TGI (%).

[10] = male, rat, plasma, SD rats, iv 1 mg/kg
[11] = male, rat, plasma, SD rats, po 10 mg/kg

In the case of `C=CCn1c(=O)c2cnc(Nc3ccc(N4CCN(C)CC4)cc3)nc2n1-c1cccc(C(C)(C)O)n1` [AZD1775, reference compound], the half-life at 1 µM ([1]; read-out: T1/2 liver microsomes Mouse) is reported as 0.433 h, the half-life at 1 µM ([2]; read-out: T1/2 liver microsomes Human) is reported as 0.635 h and the half-life at 1 µM ([3]; read-out: T1/2 liver microsomes Rat) is reported as 0.635 h. The half-life at 1 µM ([4]; read-out: T1/2 liver microsomes Dog) was 0.179 h, the half-life at 1 µM ([5]; read-out: T1/2 liver microsomes Monkey) was 0.335 h and the solubility at 24 h ([6]; pH 5.0, 37° C., read-out: Saturated solubility pH 5.0) was 410 µg/mL (≈ 819 µM). For the same compound, the solubility at 24 h ([6]; pH 6.5, 37° C., read-out: Saturated solubility pH 6.5) was 50 µg/mL (≈ 99.9 µM), the solubility at 24 h ([6]; pH 7.4, 37° C., read-out: Saturated solubility pH 7.4) was 20 µg/mL (≈ 40 µM) and the Cl ([7]; SD rats, po 10 mg/kg) was 170.8 mL/min/kg. It also gave an F ([7]; SD rats, po 10 mg/kg) of 121.8%, an AUC(0-t) [7, 10] of 72.3 ng·h/mL and a clearance [7, 10] of 148 mL/min/kg. It also gave a half-life [7, 10] of 0.91 h, a C0 ([7]; male, rat, plasma, SD rats, iv 1 mg/kg, read-out: C0) of 101 ng/mL and an AUC(0-t) [7, 11] of 881 ng·h/mL. It also gave a half-life [7, 11] of 2.68 h, a Cmax ([7]; male, rat, plasma, SD rats, po 10 mg/kg, read-out: Cmax) of 188 ng/mL and a Vss ([8]; iv 2 mg/kg) of 3.01 L/kg. For the same compound, the AUC(0-t) ([8]; male, dog, plasma, iv 2 mg/kg) was 877 ng·h/mL, the clearance ([8]; male, dog, plasma, iv 2 mg/kg) was 44 mL/min/kg and the half-life ([8]; male, dog, plasma, iv 2 mg/kg) was 1.03 h. The AUC(0-t) ([8]; male, dog, plasma, po 10 mg/kg) was 1620 ng·h/mL, the half-life ([8]; male, dog, plasma, po 10 mg/kg) was 2.34 h and the Cmax ([8]; male, dog, plasma, po 10 mg/kg, read-out: Cmax) was 405 ng/mL. For the same compound, the Tmax ([8]; male, dog, plasma, po 10 mg/kg, read-out: Tmax) was 1.67 h, the F ([8]; po 10 mg/kg) was 37.9% and the TGI ([9]; 60 mg/kg qd) was 57.6%.

For `[2H][C@]1(O)c2nc(-n3c4nc(Nc5ccc(N6CCC7(CCN(C)CC7)CC6)cc5)ncc4c(=O)n3CC=C)ccc2CCC12CC2` [Compound 37b], the “T1/2 liver microsomes Mouse” value [1] was 0.63 h, the “T1/2 liver microsomes Human” value [2] was over 2 h and the “T1/2 liver microsomes Rat” value [3] was over 2 h. The “T1/2 liver microsomes Dog” value [4] was 1.16 h, the “T1/2 liver microsomes Monkey” value [5] was 0.633 h and the “Saturated solubility pH 5.0” value ([6]; pH 5) was 0.37 mg/mL. For the same compound, the “Saturated solubility pH 6.5” value ([6]; pH 6.5) was 0.37 mg/mL, the “Saturated solubility pH 7.4” value ([6]; pH 7.4) was 0.62 mg/mL and the AUClast ([7]; SD rats, iv 1 mg/kg) was 471 ng·h/mL. The C0 ([7]; SD rats, iv 1 mg/kg) was 313.2 ng/mL, the T1/2 ([7]; SD rats, iv 1 mg/kg) was 3.97 h and the AUClast ([7]; SD rats, po 10 mg/kg) was 1131 ng·h/mL. For the same compound, the Cmax ([7]; SD rats, po 10 mg/kg) was 188.6 ng/mL, the F ([7]; SD rats, po 10 mg/kg) was 24.01% and the Tmax ([7]; SD rats, po 10 mg/kg) was 2.67 h. The “Drug exposure (in words)” value ([7]; rats, compared with AZD1775) was “obvious advantages in drug exposure”, the AUClast ([8]; iv 2 mg/kg) was 1602 ng·h/mL and the Cl ([8]; iv 2 mg/kg) was 21.8 mL/min/kg. The T1/2 ([8]; iv 2 mg/kg) was 5.05 h, the Vss ([8]; iv 2 mg/kg) was 5.71 L/kg and the AUClast ([8]; po 10 mg/kg) was 1816 ng·h/mL. It also gave a Cmax ([8]; po 10 mg/kg) of 171 ng/mL, an F ([8]; po 10 mg/kg) of 22.8% and a T1/2 ([8]; po 10 mg/kg) of 4.69 h. For the same compound, the Tmax ([8]; po 10 mg/kg) was 2.00 h, the TGI ([9]; 30 mg/kg qd) was 70.1% and the TGI ([9]; 60 mg/kg qd) was 72.4%. The TGI ([9]; 120 mg/kg qd) was 100.9%.
